Assay: xn = mol fraction of the nth substance listed
Settings: 101 kPa

CCCC[N+]1(C)CCCC1.N#C[N-]C#N + CCCCO
speed of sound (298.15 K, x2 = 0.0464): 1799 m/s
speed of sound (298.15 K, x2 = 0.0945): 1787 m/s
speed of sound (298.15 K, x2 = 0.1898): 1759 m/s
speed of sound (298.15 K, x2 = 0.299): 1720 m/s
speed of sound (298.15 K, x2 = 0.4012): 1674 m/s
speed of sound (298.15 K, x2 = 0.4989): 1624 m/s
speed of sound (298.15 K, x2 = 0.5996): 1564 m/s
speed of sound (298.15 K, x2 = 0.6947): 1500 m/s
speed of sound (298.15 K, x2 = 0.7995): 1420 m/s
speed of sound (298.15 K, x2 = 0.8965): 1339 m/s
speed of sound (298.15 K, x2 = 0.9464): 1295 m/s
speed of sound (313.15 K, x2 = 0.0464): 1761 m/s
speed of sound (313.15 K, x2 = 0.0945): 1749 m/s
speed of sound (313.15 K, x2 = 0.1898): 1720 m/s
speed of sound (313.15 K, x2 = 0.299): 1680 m/s
speed of sound (313.15 K, x2 = 0.4012): 1635 m/s
speed of sound (313.15 K, x2 = 0.4989): 1583 m/s
speed of sound (313.15 K, x2 = 0.5996): 1522 m/s
speed of sound (313.15 K, x2 = 0.6947): 1457 m/s
speed of sound (313.15 K, x2 = 0.8965): 1293 m/s
speed of sound (313.15 K, x2 = 0.9464): 1246 m/s
speed of sound (328.15 K, x2 = 0): 1736 m/s
speed of sound (328.15 K, x2 = 0.0464): 1724 m/s
speed of sound (328.15 K, x2 = 0.0945): 1712 m/s
speed of sound (328.15 K, x2 = 0.299): 1642 m/s
speed of sound (328.15 K, x2 = 0.4012): 1596 m/s
speed of sound (328.15 K, x2 = 0.4989): 1544 m/s
speed of sound (328.15 K, x2 = 0.7995): 1333 m/s
speed of sound (328.15 K, x2 = 0.8965): 1247 m/s
speed of sound (328.15 K, x2 = 0.9464): 1199 m/s

CCCC[N+]1(C)CCCC1.N#C[N-]C#N + CC(C)O
speed of sound (298.15 K, x2 = 0): 1810 m/s
speed of sound (298.15 K, x2 = 0.0896): 1789 m/s
speed of sound (298.15 K, x2 = 0.1849): 1761 m/s
speed of sound (298.15 K, x2 = 0.2967): 1723 m/s
speed of sound (298.15 K, x2 = 0.4039): 1676 m/s
speed of sound (298.15 K, x2 = 0.5056): 1622 m/s
speed of sound (298.15 K, x2 = 0.6018): 1559 m/s
speed of sound (298.15 K, x2 = 0.6997): 1483 m/s
speed of sound (298.15 K, x2 = 0.8066): 1382 m/s
speed of sound (313.15 K, x2 = 0): 1773 m/s
speed of sound (313.15 K, x2 = 0.0466): 1761 m/s
speed of sound (313.15 K, x2 = 0.1849): 1723 m/s
speed of sound (313.15 K, x2 = 0.2967): 1684 m/s
speed of sound (313.15 K, x2 = 0.4039): 1637 m/s
speed of sound (313.15 K, x2 = 0.6018): 1518 m/s
speed of sound (313.15 K, x2 = 0.6997): 1440 m/s
speed of sound (313.15 K, x2 = 0.892): 1240 m/s
speed of sound (313.15 K, x2 = 0.9461): 1170 m/s
speed of sound (328.15 K, x2 = 0): 1736 m/s
speed of sound (328.15 K, x2 = 0.0466): 1724 m/s
speed of sound (328.15 K, x2 = 0.0896): 1713 m/s
speed of sound (328.15 K, x2 = 0.1849): 1685 m/s
speed of sound (328.15 K, x2 = 0.2967): 1646 m/s
speed of sound (328.15 K, x2 = 0.4039): 1598 m/s
speed of sound (328.15 K, x2 = 0.5056): 1543 m/s
speed of sound (328.15 K, x2 = 0.6018): 1478 m/s
speed of sound (328.15 K, x2 = 0.6997): 1398 m/s
speed of sound (328.15 K, x2 = 0.8066): 1293 m/s
speed of sound (328.15 K, x2 = 0.9461): 1120 m/s

CCCCO + CCCC[N+]1(C)CCCC1.N#C[N-]C#N
speed of sound (298.15 K, x1 = 1): 1240 m/s
speed of sound (313.15 K, x1 = 1): 1190 m/s
speed of sound (328.15 K, x1 = 1): 1140 m/s

CCCO + CCCC[N+]1(C)CCCC1.N#C[N-]C#N
speed of sound (298.15 K, x1 = 1): 1206 m/s
speed of sound (313.15 K, x1 = 1): 1155 m/s
speed of sound (328.15 K, x1 = 1): 1105 m/s

CCCC[N+]1(C)CCCC1.N#C[N-]C#N + CCCO
speed of sound (298.15 K, x2 = 0): 1810 m/s
speed of sound (298.15 K, x2 = 0.0669): 1796 m/s
speed of sound (298.15 K, x2 = 0.1894): 1766 m/s
speed of sound (298.15 K, x2 = 0.3998): 1693 m/s
speed of sound (298.15 K, x2 = 0.597): 1590 m/s
speed of sound (298.15 K, x2 = 0.6944): 1523 m/s
speed of sound (298.15 K, x2 = 0.8002): 1434 m/s
speed of sound (298.15 K, x2 = 0.894): 1339 m/s
speed of sound (298.15 K, x2 = 0.9437): 1281 m/s
speed of sound (313.15 K, x2 = 0): 1773 m/s
speed of sound (313.15 K, x2 = 0.0669): 1758 m/s
speed of sound (313.15 K, x2 = 0.1894): 1728 m/s
speed of sound (313.15 K, x2 = 0.2912): 1695 m/s
speed of sound (313.15 K, x2 = 0.514): 1598 m/s
speed of sound (313.15 K, x2 = 0.597): 1549 m/s
speed of sound (313.15 K, x2 = 0.6944): 1480 m/s
speed of sound (313.15 K, x2 = 0.894): 1292 m/s
speed of sound (313.15 K, x2 = 0.9437): 1233 m/s
speed of sound (328.15 K, x2 = 0.0669): 1722 m/s
speed of sound (328.15 K, x2 = 0.1894): 1690 m/s
speed of sound (328.15 K, x2 = 0.2912): 1657 m/s
speed of sound (328.15 K, x2 = 0.3998): 1615 m/s
speed of sound (328.15 K, x2 = 0.597): 1509 m/s
speed of sound (328.15 K, x2 = 0.8002): 1346 m/s
speed of sound (328.15 K, x2 = 0.894): 1247 m/s
speed of sound (328.15 K, x2 = 0.9437): 1186 m/s

CC(C)O + CCCC[N+]1(C)CCCC1.N#C[N-]C#N
speed of sound (313.15 K, x1 = 1): 1088 m/s
speed of sound (328.15 K, x1 = 1): 1034 m/s

Source: a compilation of properties of binary mixtures (doi:10.1021/je300384g)
